# Patent publication US9308182B2 (TEVA PHARMACEUTICAL INDUSTRIES, LTD., priority 2012, dated 2016)
# Where two headings read alike, the source gives them in different places.
# Key:
# [1] = AZILECT Product Label, May 2006; cited from earlier work
# MAO-A = MAO-A (Rattus norvegicus, UniProt P21396); experiment: in vivo; settings: for MAO-A activity, brain / MAO-A activity, intestine / MAO-A activity, liver: two weeks; for MAO-A inhibition in the intestine: three lowest doses 0.02-0.1 mg/kg/day (salt); for inhibition at 0.02 mg/kg/day / inhibition at 0.05 mg/kg/day / inhibition at 0.1 mg/kg/day / inhibition at 0.2 mg/kg/day / inhibition at 0.4 mg/kg/day / inhibition at 0.8 mg/kg/day: rat
# Sequence of MAO-A (P21396 whole entry, the tested form may be a part): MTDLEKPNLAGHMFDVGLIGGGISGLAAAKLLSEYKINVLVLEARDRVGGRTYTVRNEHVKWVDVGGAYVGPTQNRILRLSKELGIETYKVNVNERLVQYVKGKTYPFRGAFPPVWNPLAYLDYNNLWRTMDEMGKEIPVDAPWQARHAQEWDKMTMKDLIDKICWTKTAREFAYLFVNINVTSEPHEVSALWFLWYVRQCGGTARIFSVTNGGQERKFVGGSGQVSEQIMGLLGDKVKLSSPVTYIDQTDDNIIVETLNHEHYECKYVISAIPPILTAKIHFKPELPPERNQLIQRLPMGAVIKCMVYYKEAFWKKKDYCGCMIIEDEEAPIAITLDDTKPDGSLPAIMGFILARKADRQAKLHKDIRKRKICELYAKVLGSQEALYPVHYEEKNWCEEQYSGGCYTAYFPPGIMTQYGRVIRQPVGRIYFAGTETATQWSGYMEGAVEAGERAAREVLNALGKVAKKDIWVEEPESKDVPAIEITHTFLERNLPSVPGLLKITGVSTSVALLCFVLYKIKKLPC
# Description: ALZET® osmotic minipumps are described in Perkins L, Peer C, and Murphy-Hackley P. “Chapter 21: The use of mini-osmotic pumps in continuous infusion studies” in Handbook of Pre-Clinical Continuous Intravenous Infusion, (Smith & Healing, eds., Taylor and Francis, 2000), the contents of which are incorporated herein by reference.
# The osmotic minipumps were inserted subcutaneously with a single surgical procedure: after clipping the fur from the dorsal area and cleaning the skin with antiseptic skin preparation, about 1 cm long incision was made on the dorsum of the animal, midway between both scappulae. The pump was placed along the axis of the body to one side of the backbone. The incision was positioned about 1-2 cm caudal to the estimated caudal end of the minipump when it is in place.
# After two weeks of treatment the animals were sacrificed. From each rat, brain (half) and a part of liver were dissected and frozen. The intestine was excised about ½ cm below the stomach about 1-2 cm long, washed with sucrose 0.32 Molar and frozen at −70° C.
# Tissue homogenates were pre incubated (37° C.) in the presence of clorgyline or deprenyl to inhibit the activity of MAO-A or MAO-B respectively. For MAO-B determination, samples were incubated for 20 minutes with C^14 PEA 10 μM and for MAO-A determination samples were incubated 30 minutes with C^14 −5HT 100 μM as substrate Termination of the reaction was done by acidification. The labeled metabolites were extracted into toluene:ethyl acetate, and counted in a β counter.
# [2] = po, read-out: Percent of MAO-A inhibition, brain
# [3] = po, read-out: Percent of MAO-A inhibition, intestine
# [4] = po, read-out: Percent of MAO-A inhibition, liver
# [5] = sc, read-out: Percent of MAO-A inhibition, brain
# [6] = sc, read-out: Percent of MAO-A inhibition, intestine
structure (smiles),measurement,setting,value
"C#CCN[C@@H]1CCc2ccccc21 [rasagiline, R(+)-N-propargyl-l-aminoindan]",absolute bioavailability,[1],about 36%
same,dose dependence of MAO-A inhibition,"MAO-A; all tissues (intestine, brain, liver)",Dose Dependent
same,"MAO-A inhibition in the brain, ALZET pumps compared with oral administration",MAO-A; brain,higher
same,"MAO-A activity, brain","MAO-A; brain, oral, 0.02 mg/kg/day (salt)",3441 dpm
same,"MAO-A activity, brain","MAO-A; brain, oral, 0.05 mg/kg/day (salt)",3031 dpm
same,"MAO-A activity, brain","MAO-A; brain, oral, 0.1 mg/kg/day (salt)",2822 dpm
same,"MAO-A activity, brain","MAO-A; brain, oral, 0.2 mg/kg/day (salt)",2319 dpm
same,"MAO-A activity, brain","MAO-A; brain, oral, 0.4 mg/kg/day (salt)",1417 dpm
same,"MAO-A activity, brain","MAO-A; brain, oral, 0.8 mg/kg/day (salt)",803 dpm
same,"MAO-A activity, brain","MAO-A; brain, sc ALZET pumps, 0.02 mg/kg/day (salt)",3479 dpm
same,"MAO-A activity, brain","MAO-A; brain, sc ALZET pumps, 0.05 mg/kg/day (salt)",2974 dpm
same,"MAO-A activity, brain","MAO-A; brain, sc ALZET pumps, 0.1 mg/kg/day (salt)",2595 dpm
same,"MAO-A activity, brain","MAO-A; brain, sc ALZET pumps, 0.2 mg/kg/day (salt)",1613 dpm
same,"MAO-A activity, brain","MAO-A; brain, sc ALZET pumps, 0.4 mg/kg/day (salt)",917 dpm
same,"MAO-A activity, brain","MAO-A; brain, sc ALZET pumps, 0.8 mg/kg/day (salt)",466 dpm
same,"MAO-A inhibition in the intestine, subcutaneous pumps compared with oral administration","MAO-A; intestine, 14 days, differences statistically significant",lower
same,"MAO-A activity, intestine","MAO-A; intestine, oral, 0.02 mg/kg/day (salt)",2712 dpm
same,"MAO-A activity, intestine","MAO-A; intestine, oral, 0.05 mg/kg/day (salt)",2607 dpm
same,"MAO-A activity, intestine","MAO-A; intestine, oral, 0.1 mg/kg/day (salt)",2308 dpm
same,"MAO-A activity, intestine","MAO-A; intestine, oral, 0.2 mg/kg/day (salt)",1891 dpm
same,"MAO-A activity, intestine","MAO-A; intestine, oral, 0.4 mg/kg/day (salt)",1194 dpm
same,"MAO-A activity, intestine","MAO-A; intestine, oral, 0.8 mg/kg/day (salt)",785 dpm
same,"MAO-A activity, intestine","MAO-A; intestine, sc ALZET pumps, 0.02 mg/kg/day (salt)",3199 dpm
same,"MAO-A activity, intestine","MAO-A; intestine, sc ALZET pumps, 0.05 mg/kg/day (salt)",2831 dpm
same,"MAO-A activity, intestine","MAO-A; intestine, sc ALZET pumps, 0.1 mg/kg/day (salt)",3029 dpm
same,"MAO-A activity, intestine","MAO-A; intestine, sc ALZET pumps, 0.2 mg/kg/day (salt)",2604 dpm
same,"MAO-A activity, intestine","MAO-A; intestine, sc ALZET pumps, 0.4 mg/kg/day (salt)",1937 dpm
same,"MAO-A activity, intestine","MAO-A; intestine, sc ALZET pumps, 0.8 mg/kg/day (salt)",1708 dpm
same,MAOA inhibitory values in the intestine,"MAO-A; intestine, sc ALZET pumps, dose from 0.2 to 0.8 mg/kg",< 50%
same,MAO-A inhibition in the intestine,"MAO-A; intestine, given by pumps",did not inhibit
same,MAO-A inhibition in the intestine,"MAO-A; intestine, given orally",26-37%
same,"hepatic MAO-A inhibition, subcutaneous ALZET pumps compared with oral",MAO-A; liver,higher
same,"MAO-A activity, liver","MAO-A; liver, oral, 0.02 mg/kg/day (salt)",2127 dpm
same,"MAO-A activity, liver","MAO-A; liver, oral, 0.05 mg/kg/day (salt)",2199 dpm
same,"MAO-A activity, liver","MAO-A; liver, oral, 0.1 mg/kg/day (salt)",1963 dpm
same,"MAO-A activity, liver","MAO-A; liver, oral, 0.2 mg/kg/day (salt)",1582 dpm
same,"MAO-A activity, liver","MAO-A; liver, oral, 0.4 mg/kg/day (salt)",1058 dpm
same,"MAO-A activity, liver","MAO-A; liver, oral, 0.8 mg/kg/day (salt)",681 dpm
same,"MAO-A activity, liver","MAO-A; liver, sc ALZET pumps, 0.02 mg/kg/day (salt)",2192 dpm
same,"MAO-A activity, liver","MAO-A; liver, sc ALZET pumps, 0.05 mg/kg/day (salt)",2185 dpm
same,"MAO-A activity, liver","MAO-A; liver, sc ALZET pumps, 0.1 mg/kg/day (salt)",1930 dpm
same,"MAO-A activity, liver","MAO-A; liver, sc ALZET pumps, 0.2 mg/kg/day (salt)",646 dpm
same,"MAO-A activity, liver","MAO-A; liver, sc ALZET pumps, 0.4 mg/kg/day (salt)",27 + dpm
same,"MAO-A activity, liver","MAO-A; liver, sc ALZET pumps, 0.8 mg/kg/day (salt)",4 dpm
same,inhibition at 0.02 mg/kg/day,MAO-A; [2],6%
same,inhibition at 0.05 mg/kg/day,MAO-A; [2],15%
same,inhibition at 0.1 mg/kg/day,MAO-A; [2],23%
same,inhibition at 0.2 mg/kg/day,MAO-A; [2],37%
same,inhibition at 0.4 mg/kg/day,MAO-A; [2],61%
same,inhibition at 0.8 mg/kg/day,MAO-A; [2],78%
same,inhibition at 0.02 mg/kg/day,MAO-A; [3],26%
same,inhibition at 0.1 mg/kg/day,MAO-A; [3],37%
same,inhibition at 0.2 mg/kg/day,MAO-A; [3],48%
same,inhibition at 0.8 mg/kg/day,MAO-A; [3],79%
same,inhibition at 0.02 mg/kg/day,MAO-A; [4],8%
same,inhibition at 0.05 mg/kg/day,MAO-A; [4],5%
same,inhibition at 0.1 mg/kg/day,MAO-A; [4],18%
same,inhibition at 0.2 mg/kg/day,MAO-A; [4],31%
same,inhibition at 0.8 mg/kg/day,MAO-A; [4],70%
same,inhibition at 0.02 mg/kg/day,MAO-A; [5],8%
same,inhibition at 0.05 mg/kg/day,MAO-A; [5],21%
same,inhibition at 0.1 mg/kg/day,MAO-A; [5],31%
same,inhibition at 0.2 mg/kg/day,MAO-A; [5],57%
same,inhibition at 0.4 mg/kg/day,MAO-A; [5],76%
same,inhibition at 0.8 mg/kg/day,MAO-A; [5],88%
same,inhibition at 0.02 mg/kg/day,MAO-A; [6],-8%
same,inhibition at 0.05 mg/kg/day,MAO-A; [6],1%
same,inhibition at 0.1 mg/kg/day,MAO-A; [6],-3%
same,inhibition at 0.2 mg/kg/day,MAO-A; [6],12%
